Patent US12396961B2, “Compounds and compositions for intracellular delivery of agents” (ModernaTX, Inc., priority 2015, dated 2025)

Columns and labels:
[1] = test system: luciferase (Luc) mRNA expression; test: Luc expression (AUC) in CD-1 mice relative to MC3; format: in vivo; conditions: for Lipid/MC3 Luc CD-1 (mice): Luc expression relative to MC3, CD-1 mice; for Liver/Spleen Ratio / Lipid/MC3 AUC: Table 7c; for Lipid/MC3 AUC: AUC relative to MC3
Method: FIG. 15 is a graph summarizing luciferase expression levels at 6 h after administration of nanoparticle compositions containing compounds of the disclosure to CD-1 mice at a dose of 0.5 mpk. Total light flux values were acquired via body luminescent imaging (BLI) 6 h after administration. In this Figure, the numbers 1-7 and 10 refer to the compositions containing Compounds 4-10 and MC3 respectively.
In contrast, hEPO expression in rats induced by administration of nanoparticle composition including compound according to one of formulae (I), (Ia1)-(Ia6), (Ib), (II), (IIa), (III), and (IIIa) was substantially lower than that measured for MC3. […] Table 7c and 7d show additional protein expressions and clearance data from compositions with various compounds disclosed herein as compared to with MC3.

[2] = Particle size and polydispersity index (Zetasizer Nano ZS); format: physicochemical; conditions: Table 1; for PDI: DOPE 40:20:38.5:1.5, Luc mRNA
Excerpt: Nanoparticle compositions may be characterized by a variety of methods. For example, microscopy (e.g., transmission electron microscopy or scanning electron microscopy) may be used to examine the morphology and size distribution of a nanoparticle composition. Dynamic light scattering or potentiometry (e.g., potentiometric titrations) may be used to measure zeta potentials. Dynamic light scattering may also be utilized to determine particle sizes. Instruments such as the Zetasizer Nano ZS (Malvern Instruments Ltd, Malvern, Worcestershire, UK) may also be used to measure multiple characteristics of a nanoparticle composition, such as particle size, polydispersity index, and zeta potential.
A Zetasizer Nano ZS (Malvern Instruments Ltd, Malvern, Worcestershire, UK) can be used to determine the particle size, the polydispersity index (PDI) and the zeta potential of the nanoparticle compositions in 1×PBS in determining particle size and 15 mM PBS in determining zeta potential.

hEPO mRNA expression = test: Expression of hEPO in mice (CD-1); format: in vivo, CD-1 mice; conditions: Table 7e; hEPO expression, CD-1 mice, 0.5 mpk
Excerpt: FIG. 12 is a set of graphs illustrating hEPO expression levels in CD-1 mice dosed with compounds of the disclosure, compared to MC3. PBS is used as control. […] In graphs A-C numbers 1-14 refer to compositions containing the following: 1: Compound 73, 2: Compound 80, 3: Compound 70; 4: Compound 81; 5: Compound 69; 6: Compound 82; 7: Compound 83; 8: Compound 62; 9: Compound 84; 10: Compound 85; 11: Compound 86; 12: Compound 87; 13: MC3; 14: PBS.
FIG. 13 is a graph showing hEPO levels (pg/mL) in CD-1 mice up to −25 h after administration of a nanoparticle composition containing compounds of the disclosure, compared to a composition containing MC3. Numbers 1-13 refer to compositions containing the following: 1: Compound 73, 2: Compound 80, 3: Compound 70; 4: Compound 81; 5: Compound 69; 6: Compound 82; 7: Compound 83; 8: Compound 62; 9: Compound 84; 10: Compound 85; 11: Compound 86; 12: Compound 87; 13: MC3. […]

| PDI [2] | Compound | Lipid/MC3 Luc CD-1 (mice) [1] | Lipid/MC3 AUC (hEPO mRNA expression) | other results |
| --- | --- | --- | --- | --- |
| 0.190 | CCCCCCCCCN(CCCCCCCCC)CCN(CCCCCCCCC)CC(=O)N1CC2CC1CN2C(=O)CN(CCCCCCCCC)CCCCCCCCC (stereo not shown) [Compound 42, 2-(Dinonylamino)-1-(5-(N-(2-(dinonylamino)ethyl)-N-nonylglycyl)-2,5-diazabicyclo[2.2.1]heptan-2-yl)ethan-1-one] | 3.99 | – | – |
| 0.220 | CCCCCCCCCCCCN(CCCCCCCCCCCC)CCN(CCCCCCCCCCCC)CC(=O)N1CC2CC1CN2C(=O)CN(CCCCCCCCC)CCCCCCCCC (stereo not shown) [Compound 43, 2-((2-(Didodecylamino)ethyl)(dodecyl)amino)-1-(5-(dinonylglycyl)-2,5-diazabicyclo[2.2.1]heptan-2-yl)ethan-1-one] | 0.34 | – | Size (nm) ([2]; lipid:DOPE:Chol:PEG-DMG 40:20:38.5:1.5, Luc mRNA, MC3 standard formulation): 99.0 nm |
| 0.190 | CCCCCCCCCN(CCCCCCCCC)CCN(CCCCCCCCC)CC(=O)N1CCN(C(=O)CN(CCCCCCCCC)CCCCCCCC(=O)OC)CC1 [Compound 44, Methyl 8-((2-(4-(N-(2-(dinonylamino)ethyl)-N-nonylglycyl)piperazin-1-yl)-2-oxoethyl)(nonyl)amino)octanoate] | 0.82 | – | – |
| 0.160 | CCCCCCCCCN(CCCCCCCC(=O)OC)CCN(CCCCCCCCC)CC(=O)N1CCN(C(=O)CN(CCCCCCCCC)CCCCCCCCC)CC1 [Compound 46, Methyl 8-((2-((2-(4-(dinonylglycyl)piperazin-1-yl)-2-oxoethyl)(nonyl)amino)ethyl)(nonyl)amino)octanoate] | 0.46 | – | – |
| 0.180 | CCCCCCCCCN(CCCCCCCCC)CCN(CCCCCCCC(=O)OC)CC(=O)N1CCN(C(=O)CN(CCCCCCCCC)CCCCCCCCC)CC1 [Compound 47, Methyl 8-((2-(dinonylamino)ethyl)(2-(4-(dinonylglycyl)piperazin-1-yl)-2-oxoethyl)amino)octanoate] | 0.22 | – | – |
| 0.099 | CCCCCCCCCN(CCCCCCCC(=O)OC)CCN(CCCCCCCC(=O)OC)CC(=O)N1CCN(C(=O)CN(CCCCCCCCC)CCCCCCCCC)CC1 [Compound 48, Methyl 8-((2-(4-(dinonylglycyl)piperazin-1-yl)-2-oxoethyl)(2-((8-methoxy-8-oxooctyl)(nonyl)amino)ethyl)amino)octanoate] | 0.01 | – | – |
| 0.190 | CCCCCCCCCN(CCCCCCCCC)CCN(CCCCCCCCC)CCC1CCN(C(=O)CN(CCCCCCCCC)CCCCCCCCC)CC1 [Compound 50, 2-(Dinonylamino)-1-(4-(2-((2-(dinonylamino)ethyl)(nonyl)amino)ethyl)piperidin-1-yl)ethan-1-one] | 0.01 | – | – |
| 0.190 | CCCCCCCCCCCCCCN(CCCCCCCCCCCCCC)CC(=O)N1CCN(C(=O)CN(CCCCCCCCC)CCN(CCCCCCCCC)CCCCCCCCC)CC1 [Compound 51, 2-((2-(Dinonylamino)ethyl)(nonyl)amino)-1-(4-(ditetradecylglycyl)piperazin-1-yl)ethan-1-one] | 5.22 | – | – |
| 0.100 | CCCCCCCCCN(CCCCCCCCC)CCC(=O)N1CCN(C(=O)CCN(CCCCCCCCC)CCN(CCCCCCCCC)CCCCCCCCC)CC1 [Compound 52, 3-(Dinonylamino)-1-(4-(3-((2-(dinonylamino)ethyl)(nonyl)amino)propanoyl)piperazin-1-yl)propan-1-one] | 7.46 | – | – |
| – | CCCCCCCCCN(CCCCCCCCC)CCN(CCCCCCCCC)CC(=O)N1CCN(C(=O)CN(CCCCCCCCC)CCCCCC(=O)OCCC)CC1 [Compound 54, Propyl 6-((2-(4-(N-(2-(dinonylamino)ethyl)-N-nonylglycyl)piperazin-1-yl)-2-oxoethyl)(nonyl)amino)hexanoate] | – | – | Liver/Spleen Ratio [1]: 32; Lipid/MC3 AUC [1]: 0.13 |
| – | CCCCCCCCCN(CCCCCC(=O)OCCC)CCC1CCN(C(=O)CN(CCCCCCCCC)CCN(CCCCCCCCC)CCCCCCCCC)CC1 [Compound 59, Propyl 6-((2-(1-(N-(2-(dinonylamino)ethyl)-N-nonylglycyl)piperidin-4-yl)ethyl)(nonyl)amino)hexanoate] | – | – | Liver/Spleen Ratio [1]: 5; Lipid/MC3 AUC [1]: 0.84 |
| – | CCCCCCCCCN(CCCCC(=O)OCCCC)CCC1CCN(C(=O)CN(CCCCCCCCC)CCN(CCCCCCCCC)CCCCCCCCC)CC1 [Compound 60, Butyl 5-((2-(1-(N-(2-(dinonylamino)ethyl)-N-nonylglycyl)piperidin-4-yl)ethyl)(nonyl)amino)pentanoate] | – | – | Liver/Spleen Ratio [1]: 15; Lipid/MC3 AUC [1]: 2.00 |
| – | CCCCCCCCCN(CCCC(=O)OCCCCC)CCC(=O)N1CCN(C(=O)CCN(CCCCCCCCC)CCN(CCCCCCCCC)CCCCCCCCC)CC1 [Compound 62, Pentyl 4-((3-(4-(3-((2-(dinonylamino)ethyl)(nonyl)amino)propanoyl)piperazin-1-yl)-3-oxopropyl)(nonyl)amino)butanoate] | – | 0.97 | – |
| – | CCCCCCCCCN(CCCCCCCCC)CCC1CCN(C(=O)CN(CCCCCCCCC)CCN(CCCCCCCCC)CCCCCCCCC)C1 (stereo not shown) [Compound 69, 2-((2-(Dinonylamino)ethyl)(nonyl)amino)-1-(3-(2-(dinonylamino)ethyl)pyrrolidin-1-yl)ethan-1-one] | – | 6.52 | – |
| – | CCCCCCCCCN(CCCCCCCCC)CCN(CCCCCCCCC)CC(=O)N1CCC(CN(CCCCCCCCC)CCCCCCCCC)C1 (stereo not shown) [Compound 70, 2-((2-(Dinonylamino)ethyl)(nonyl)amino)-1-(3-((dinonylamino)methyl)pyrrolidin-1-yl)ethan-1-one] | – | 1.77 | – |
| – | CCCCCCCCCN(CCCC(=O)OCCCCC)CCN(CCCCCCCCC)CC(=O)N1CCN(C(=O)CN(CCCCCCCCC)CCCC(=O)OCCCCC)CC1 [Compound 71, Pentyl 4-(nonyl(2-(4-(N-nonyl-N-(2-(nonyl(4-oxo-4-(pentyloxy)butyl)amino)ethyl)glycyl)piperazin-1-yl)-2-oxoethyl)amino)butanoate] | – | – | Liver/Spleen Ratio [1]: 25; Lipid/MC3 AUC [1]: 1.25 |
| – | CCCCCCCCCN(CCCCCCCCC)CCC1CCCN(C(=O)CN(CCCCCCCCC)CCN(CCCCCCCCC)CCCCCCCCC)C1 (stereo not shown) [Compound 73, 2-((2-(Dinonylamino)ethyl)(nonyl)amino)-1-(3-(2-(dinonylamino)ethyl)piperidin-1-yl)ethan-1-one] | – | 3.93 | – |
| – | CCCCCCCCCN(CCCC(=O)OCCCCC)CCC1CCCN(C(=O)CN(CCCCCCCCC)CCN(CCCCCCCCC)CCCCCCCCC)C1 (stereo not shown) [Compound 80, Pentyl 4-((2-(1-(N-(2-(dinonylamino)ethyl)-N-nonylglycyl)piperidin-3-yl)ethyl)(nonyl)amino)butanoate] | – | 1.74 | – |
| – | CCCCCCCCCN(CCCC(=O)OCCCCC)CCC1CCN(C(=O)CN(CCCCCCCCC)CCN(CCCCCCCCC)CCCCCCCCC)C1 (stereo not shown) [Compound 81, Pentyl 4-((2-(1-(N-(2-(dinonylamino)ethyl)-N-nonylglycyl)pyrrolidin-3-yl)ethyl)(nonyl)amino)butanoate] | – | 3.01 | – |
| – | CCCCCCCCCN(CCCCCCCCC)CCN(CCCCCCCCC)CC(=O)N1CCC(CN(CCCCCCCCC)CCCC(=O)OCCCCC)C1 (stereo not shown) [Compound 82, Pentyl 4-(((1-(N-(2-(dinonylamino)ethyl)-N-nonylglycyl)pyrrolidin-3-yl)methyl)(nonyl)amino)butanoate] | – | 3.62 | – |
| – | CCCCCCCCCN(CCCC(=O)OCCCCC)CCC1CCN(C(=O)CN(CCCCCCCCC)CCN(CCCCCCCCC)CCCCCCCCC)CC1 [Compound 83, Pentyl 4-((2-(1-(N-(2-(dinonylamino)ethyl)-N-nonylglycyl)piperidin-4-yl)ethyl)(nonyl)amino)butanoate] | – | 1.46 | – |
| – | CCCCCCCCCN(CCCC(=O)OCCCCC)CCCC1CCN(C(=O)CCN(CCCCCCCCC)CCN(CCCCCCCCC)CCCCCCCCC)CC1 [Compound 84, Pentyl 4-((3-(1-(3-((2-(dinonylamino)ethyl)(nonyl)amino)propanoyl)piperidin-4-yl)propyl)(nonyl)amino)butanoate] | – | 1.43 | – |
| – | CCCCCCCCCN(CCCCCCCCC)CCCC1CCN(C(=O)CCN(CCCCCCCCC)CCN(CCCCCCCCC)CCCCCCCCC)CC1 [Compound 85, 3-((2-(Dinonylamino)ethyl)(nonyl)amino)-1-(4-(3-(dinonylamino)propyl)piperidin-1-yl)propan-1-one] | – | 3.54 | – |
